Some test systems named below: NCI-H522 lung; MALME-3M melanoma; TK-10 renal; SK-MEL-28 melanoma; LOX IMVI melanoma; OVCAR-3 ovarian; SW-620 colon; MCF7 breast; PC-3 prostate; HCT-15 colon.
Common to all, as to assay: NCI tumour cell line growth inhibition, 48 h

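Five compound concentrations were applied to cells in 96-well plates for 48 hours; endpoints were derived by simple linear interpolation of the resulting dose-response curve. TGI is the concentration that stops growth completely.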

For `O=C(N/N=C1/C(=O)c2c3ccccc3cc3cccc1c23)c1ccccc1`, the TGI is over 100 µM in the experiment on NCI-H522 lung; 68.5 µM in the experiment with MALME-3M melanoma; 78.5 µM in the experiment with TK-10 renal; over 95.6 µM in the experiment on SK-MEL-28 melanoma; over 100 µM in the experiment on LOX IMVI melanoma; over 100 µM in the experiment with OVCAR-3 ovarian. Moreover, the TGI in the experiment with SW-620 colon is over 100 µM; in the experiment with MCF7 breast it was over 77.1 µM; in the experiment with PC-3 prostate, over 84.1 µM; in the experiment with HCT-15 colon, over 100 µM.
Regarding `CCNC(=O)c1c(O)c2ccccc2[nH]c1=O`, the TGI in the experiment with NCI-H522 lung, with MALME-3M melanoma, with TK-10 renal, in the experiment with SK-MEL-28 melanoma, with LOX IMVI melanoma and in the experiment on OVCAR-3 ovarian was over 100 µM each time. For the same compound, the TGI with SW-620 colon, in the experiment on MCF7 breast, in the experiment on PC-3 prostate and with HCT-15 colon was over 100 µM throughout.
As to `CC(C)=CCC/C(C)=C/CC/C(C)=C/CC/C(=C/CC/C(C)=C\CC/C(C)=C/CC/C(C)=C/CC/C(C)=C/Cc1cc(O)ccc1O)CO`, the TGI in the experiment with NCI-H522 lung is 6.26 µM; in the experiment on MALME-3M melanoma, 6.37 µM; with TK-10 renal, 19.5 µM; in the experiment with SK-MEL-28 melanoma, 10.9 µM; in the experiment with LOX IMVI melanoma, over 23.4 µM; with OVCAR-3 ovarian, 16.5 µM. Moreover, the TGI in the experiment on SW-620 colon turned out to be 42.5 µM; in the experiment with MCF7 breast it was 15.2 µM; with PC-3 prostate it was 15.5 µM; with HCT-15 colon, 39 µM.
With `O=C1OC(=O)c2cc(S(=O)(=O)c3ccc4c(c3)C(=O)OC4=O)ccc21`, the TGI in the experiment with NCI-H522 lung, in the experiment with MALME-3M melanoma, in the experiment with TK-10 renal, with SK-MEL-28 melanoma, with LOX IMVI melanoma and in the experiment on OVCAR-3 ovarian was over 100 µM in each case. The TGI in the experiment with SW-620 colon, in the experiment on MCF7 breast, in the experiment with PC-3 prostate and with HCT-15 colon was over 100 µM throughout.
Consider `C=C1C(=O)O[C@@H]2C[C@]3(C)CC[C@]4(C)[C@H](CC[C@@H]5[C@@]6(C)CCC(=O)C(C)(C)[C@@H]6CC[C@]54C)[C@H]3[C@H]12`, for which the TGI in the experiment on NCI-H522 lung worked out at 23.2 µM; in the experiment with MALME-3M melanoma it was 29.7 µM; in the experiment with TK-10 renal, 30.3 µM; with SK-MEL-28 melanoma, 38.4 µM; in the experiment with LOX IMVI melanoma it was 29.6 µM; in the experiment with OVCAR-3 ovarian it was 35.5 µM. Besides, the TGI was found to be 55.4 µM with SW-620 colon, 21.4 µM with MCF7 breast, 35.4 µM with PC-3 prostate and 28.1 µM in the experiment on HCT-15 colon.
As to `CC(=O)OC1COC(Nc2nc(NCc3ccccc3)n(C)c(=O)c2N=O)C(OC(C)=O)C1OC(C)=O` (stereo unspecified), the TGI with NCI-H522 lung, in the experiment on MALME-3M melanoma, in the experiment on TK-10 renal, with SK-MEL-28 melanoma, in the experiment on LOX IMVI melanoma and with OVCAR-3 ovarian was over 10 µM each time. The TGI with SW-620 colon, with MCF7 breast, in the experiment on PC-3 prostate and with HCT-15 colon was over 10 µM throughout.
As to `CC1=Nc2sc3c(c2C2=NCCN12)CCCC3`, the TGI with NCI-H522 lung was 41 µM; in the experiment with MALME-3M melanoma, 71.3 µM; in the experiment on TK-10 renal, over 100 µM; with SK-MEL-28 melanoma, 65.4 µM; with LOX IMVI melanoma, 36.8 µM; in the experiment with OVCAR-3 ovarian, 66.8 µM. The TGI in the experiment with SW-620 colon was 52.9 µM; in the experiment with MCF7 breast, 48.1 µM; with PC-3 prostate it was 65.9 µM; in the experiment with HCT-15 colon, over 100 µM.
`CC1(C)C2CC(=O)C1(C)C(OCc1ccccc1)C2` (stereo unspecified): the TGI in the experiment with NCI-H522 lung is 52.5 µM; in the experiment with MALME-3M melanoma, over 100 µM; in the experiment on TK-10 renal, over 100 µM; in the experiment with SK-MEL-28 melanoma it was over 100 µM; with LOX IMVI melanoma it was 68.4 µM; in the experiment on OVCAR-3 ovarian, over 100 µM. For the same compound, the TGI in the experiment with SW-620 colon was 87.3 µM; in the experiment with MCF7 breast it was over 100 µM; with PC-3 prostate it was over 100 µM; with HCT-15 colon, over 100 µM.
As for `CCOP(=O)(OCC)C(N)c1ccc(Cl)cc1` (stereo unspecified), the TGI with NCI-H522 lung, in the experiment with MALME-3M melanoma, with TK-10 renal, in the experiment on SK-MEL-28 melanoma, in the experiment with LOX IMVI melanoma and in the experiment on SW-620 colon was over 100 µM throughout. Besides, the TGI in the experiment on MCF7 breast, with PC-3 prostate and with HCT-15 colon was over 100 µM in each case.
Turning to `Cc1noc(NC2=CC(=O)C(=O)c3ccccc32)c1C`, the TGI in the experiment with NCI-H522 lung was 79.2 µM; with MALME-3M melanoma it was 17.6 µM; in the experiment on TK-10 renal it was over 100 µM; with SK-MEL-28 melanoma, over 100 µM; with LOX IMVI melanoma it was over 100 µM; with OVCAR-3 ovarian, over 100 µM. Besides, the TGI with MCF7 breast is 17.9 µM; in the experiment with PC-3 prostate it was over 100 µM; in the experiment with HCT-15 colon, over 100 µM.
As for `CCOC(=O)C(NC(=O)c1ccccc1)(N1CCOCC1)C(F)(F)F` (stereo unspecified), the TGI in the experiment on NCI-H522 lung, in the experiment on MALME-3M melanoma, in the experiment with TK-10 renal, in the experiment with SK-MEL-28 melanoma, in the experiment on LOX IMVI melanoma and in the experiment with OVCAR-3 ovarian was over 100 µM each time. Besides, the TGI in the experiment with SW-620 colon, in the experiment on MCF7 breast, with PC-3 prostate and with HCT-15 colon was over 100 µM throughout.
Regarding `O=C(NCc1cccc2ccccc12)N/N=C\c1ccc(Cl)cc1`, the TGI in the experiment on NCI-H522 lung, in the experiment with MALME-3M melanoma, with TK-10 renal, in the experiment on SK-MEL-28 melanoma, with LOX IMVI melanoma and in the experiment on OVCAR-3 ovarian was over 100 µM each time. Also, the TGI in the experiment with SW-620 colon, in the experiment on MCF7 breast, with PC-3 prostate and in the experiment with HCT-15 colon was over 100 µM each time.
In the case of `COc1ccc(CN=C(N)N)c2ccccc12`, the TGI with NCI-H522 lung is over 100 µM; with MALME-3M melanoma it was 34.7 µM; in the experiment with TK-10 renal it was over 100 µM; with SK-MEL-28 melanoma, 86.5 µM; in the experiment on LOX IMVI melanoma it was over 100 µM; in the experiment with OVCAR-3 ovarian, over 100 µM. For the same compound, the TGI with SW-620 colon, in the experiment with MCF7 breast, in the experiment on PC-3 prostate and with HCT-15 colon was over 100 µM in each case.
In the case of `O=C(O)Cc1ccc2[nH]c(O)c(C3=Nc4ccccc4C3=O)c2c1`, the TGI in the experiment with NCI-H522 lung was over 100 µM; with MALME-3M melanoma, over 100 µM; with TK-10 renal, over 100 µM; with SK-MEL-28 melanoma, over 100 µM; in the experiment with LOX IMVI melanoma, over 100 µM; in the experiment with OVCAR-3 ovarian, 67.3 µM. Moreover, the TGI in the experiment on SW-620 colon was over 100 µM; with MCF7 breast, 36.1 µM; in the experiment on PC-3 prostate it was over 100 µM; in the experiment on HCT-15 colon it was over 100 µM.
With `COc1ccc(C2C3COc4ccccc4C3=NN2c2ccccc2)cc1` (stereo unspecified), the TGI in the experiment on NCI-H522 lung, in the experiment on MALME-3M melanoma, in the experiment on TK-10 renal, in the experiment on LOX IMVI melanoma, with OVCAR-3 ovarian and in the experiment on SW-620 colon was over 100 µM in each case. Further, the TGI in the experiment on MCF7 breast, in the experiment with PC-3 prostate and in the experiment with HCT-15 colon was over 100 µM throughout.
On to `Cc1csc(/N=C\c2c(O)c3ccccc3oc2=O)n1`, for which the TGI in the experiment with NCI-H522 lung was over 100 µM; in the experiment with MALME-3M melanoma it was 70.3 µM; in the experiment with TK-10 renal, 77.8 µM; in the experiment on LOX IMVI melanoma, over 100 µM; with OVCAR-3 ovarian, over 100 µM; in the experiment on SW-620 colon, over 100 µM. Besides, the TGI in the experiment on MCF7 breast, in the experiment on PC-3 prostate and in the experiment with HCT-15 colon was over 100 µM in each case.
Turning to `CCCCON1C[C@H](OC(C)=O)C(OC(C)=O)[C@H](OC(C)=O)C1` (stereo partly specified), the TGI in the experiment with NCI-H522 lung, in the experiment with MALME-3M melanoma, with TK-10 renal, in the experiment on SK-MEL-28 melanoma, in the experiment with LOX IMVI melanoma and in the experiment on OVCAR-3 ovarian was over 100 µM each time. Besides, the TGI in the experiment with MCF7 breast, with PC-3 prostate and with HCT-15 colon was over 100 µM in each case.
On to `CC(=O)OC[C@@H](OC(C)=O)[C@H](OC(C)=O)[C@@H]1OC(C)(C)O[C@@H]1C1SCCCS1`, for which the TGI with NCI-H522 lung, with MALME-3M melanoma, in the experiment with TK-10 renal, in the experiment with SK-MEL-28 melanoma, with LOX IMVI melanoma and in the experiment on OVCAR-3 ovarian was over 100 µM in each case. Also, the TGI with SW-620 colon, with MCF7 breast and in the experiment on PC-3 prostate was over 100 µM in each case.
For the compound `O=[N+]([O-])c1ccc(C=NCC2CCCN3CCCCC23)cc1` (stereo unspecified), the TGI in the experiment on NCI-H522 lung was over 100 µM; in the experiment with MALME-3M melanoma it was over 100 µM; with TK-10 renal, over 100 µM; in the experiment on SK-MEL-28 melanoma it was over 100 µM; with LOX IMVI melanoma, 30.4 µM; in the experiment with SW-620 colon, over 100 µM. Moreover, the TGI was 66.6 µM in the experiment with MCF7 breast, over 100 µM in the experiment on PC-3 prostate and over 100 µM in the experiment with HCT-15 colon.
With `FC1C2=C(SC1(F)F)C1CCC2C1` (stereo unspecified), the TGI with NCI-H522 lung, in the experiment with MALME-3M melanoma, in the experiment with TK-10 renal, in the experiment with LOX IMVI melanoma, in the experiment on OVCAR-3 ovarian and with SW-620 colon was over 100 µM in each case. Further, the TGI in the experiment with MCF7 breast, in the experiment on PC-3 prostate and in the experiment on HCT-15 colon was over 100 µM in each case.
`Oc1ccc(Cl)cc1CN1CCN(Cc2cc(Cl)ccc2O)C1`: the TGI with NCI-H522 lung is 13.2 µM; with MALME-3M melanoma, 8.29 µM; in the experiment with TK-10 renal, 9.69 µM; in the experiment on SK-MEL-28 melanoma, 6.78 µM; in the experiment with LOX IMVI melanoma, 4.07 µM; with OVCAR-3 ovarian, 11.8 µM. Further, the TGI with SW-620 colon amounted to 10.5 µM; in the experiment on MCF7 breast, 24.1 µM; in the experiment with PC-3 prostate, 6.69 µM.

Source of the values: PubChem BioAssay (NCI).
